{"source": "patent US10920230B2", "about": "“Methylotrophs for aquaculture and animal feed” (KnipBio, Inc., priority 2013, dated 2021)", "key": {"[1]": {"tested_on": "PR/tetO promoter", "experiment": "Fluorescence-based mCherry expression assay, pJP22T", "type": "cell-based, M. extorquens", "source_text": "(§1) A desirable property for regulated expression systems is for levels of gene expression from the promoter to be proportional to the concentration of inducer. In order to explore the range of induction of PR/cmtO and PR/tetO, the promoters along with their respective regulatory proteins were introduced onto broad-host-range plasmids (IncP compatibility group) to create the expression vectors pLC290 and pLC291 (FIG. 8 in U.S. Ser. No. 61/863,701). […] We placed the red-fluorescent protein variant mCherry under the control of each promoter in pLC290 and pLC291 and introduced the resulting vectors (pJP18T and pJP22T) into M. extorquens. To induce expression from PR/cmtO and PR/tetO, we supplied varied concentrations of cumate (Q) and anhydrotetracycline (aTc), respectively, to M. extorquens cultures.\n(§2) Assays to measure levels of mCherry protein expression were performed as follows. For dose-dependent response curves, M. extorquens strains harboring pJP18T or pJP22T were grown to saturation in 10 mL of Hypho-succinate medium. […] Cultures were allowed to continue growth for an additional 24 hours prior to fluorescence (excitation 587 nm/emission 610 nm) and optical density (600 nm) measurements made using a Tecan Safire2 plate reader. Relative fluorescence values reported are: Relative fluorescence (A.U.)=RFU/OD600*10^−3."}, "[2]": {"tested_on": "cumate inducible PmxaF promoter", "experiment": "Fluorescence-based mCherry expression assay, pHC115m", "type": "cell-based, M. extorquens", "details": "uninduced 15.6±1.5", "method": "Assays to measure levels of mCherry protein expression were performed as follows. For dose-dependent response curves, M. extorquens strains harboring pJP18T or pJP22T were grown to saturation in 10 mL of Hypho-succinate medium. These cultures were then diluted 1:200 in fresh medium, followed by 630 μL aliquots being dispensed to clear, flat-bottom, 48-well microtiter plates (Costar). Cultures were grown for 4 hours on a plate shaking tower (Caliper) at 150 rpm in a 30° C. humidified room. After 4 hours of growth, 10 μl of fresh medium containing Q or aTc was added to supply Q and aTc at desired concentrations. Cultures were allowed to continue growth for an additional 24 hours prior to fluorescence (excitation 587 nm/emission 610 nm) and optical density (600 nm) measurements made using a Tecan Safire2 plate reader. Relative fluorescence values reported are: Relative fluorescence (A.U.)=RFU/OD600*10^−3."}, "[3]": {"tested_on": "PR/cmtO promoter", "experiment": "Fluorescence-based mCherry expression assay, pJP18T", "type": "cell-based, M. extorquens", "source_text": "as §1, §2"}, "[4]": {"tested_on": "wild-type B. fungorum LB400", "experiment": "microbe, parasite or virus in culture", "details": "Paraburkholderia fungorum", "method": "The minimal inhibitory concentration (MIC) of formaldehyde was determined by comparing the rate and extent of colony formation of wild-type B. fungorum LB400 to that of the flhA mutants CM363K.1 and CM363.1 on solid medium containing succinate as a growth substrate with various concentrations of formaldehyde. Formaldehyde was added to the plates immediately prior to the addition of the molten agar."}}}
{"smiles": "CC(C)c1ccc(C(=O)O)cc1", "note": "[Q, p-isopropyl benzoate]", "values": [{"measurement": "relative fluorescence (crosstalk)", "setting": "[1]; pJP22T with the non-cognate inducer, grown in succinate, uninduced 1.0", "value": 1.1, "unit": "A.U."}, {"measurement": "relative fluorescence, induced", "setting": "[2]", "value": "157.1±3.7", "unit": "A.U."}, {"measurement": "induction (regulatory range)", "setting": "[3]; induced versus uninduced", "value": 10, "unit": "fold"}]}
{"smiles": "Cc1c2c(c(O)c3c(O)cccc13)C(=O)[C@]1(O)C(=O)C(C(N)=O)=C(O)[C@@H](N(C)C)[C@@H]1C2", "note": "[aTc, anhydrotetracycline]", "values": [{"measurement": "induction (regulatory range)", "setting": "[1]; induced versus uninduced", "value": 30, "unit": "fold"}, {"measurement": "relative fluorescence (crosstalk)", "setting": "[3]; pJP18T with the non-cognate inducer, grown in succinate, uninduced 4.6", "value": 4.2, "unit": "A.U."}]}
{"smiles": "C=O", "note": "[formaldehyde]", "values": [{"measurement": "MIC", "setting": "[4]", "value": 200, "unit": "µM"}]}
